Assay results taken from patent US20220289794A1, “SYNTHETIC ANTIMICROBIAL PEPTIDES” (priority 2019, published 2022).

The substances below were run on P. aeruginosa (ATCC BAA-1744) (assay: Broad-spectrum activity against Gram-Negative bacteria (MIC)). Details: Table 16, Gram-negative panel.
Assay type: cell-based

Substance	MIC P. aeruginosa (ATCC BAA-1744)
c[Arg-Arg-arg-Arg-Dip-Trp-Dip] [IFX-092]	25 µg/mL
c[Arg-Arg-arg-arg-NaI-trp-NaI] [IFX-139]	50 µg/mL
c[Arg-Arg-arg-arg-naI-trp-naI] [IFX-137]	25 µg/mL
c[Arg-arg-Arg-Arg-Dip-Dip-Dip] [IFX-065]	12.5 µg/mL

What follows are substances tested on A. baumannii (ATCC BAA-1605) in the same assay as above. Details: Table 16, Gram-negative panel.
Assay type: cell-based

Substance	MIC A. baumannii (ATCC BAA-1605)
c[Arg-Arg-arg-Arg-Dip-Trp-Dip] [IFX-092]	12.5 µg/mL
c[Arg-Arg-arg-arg-NaI-trp-NaI] [IFX-139]	12.5 µg/mL
c[Arg-Arg-arg-arg-naI-trp-naI] [IFX-137]	12.5 µg/mL
c[Arg-arg-Arg-Arg-Dip-Dip-Dip] [IFX-065]	6.2 µg/mL

The substances below were run on Escherichia coli (ATCC 25922) (assay: not given). Details: E. coli ATCC 25922.

Substance	MIC E. coli ATCC 25922
c[Arg-Arg-arg-Arg-Dip-Trp-Dip] [IFX-092]	25 µg/mL
c[Arg-Arg-arg-arg-NaI-trp-NaI] [IFX-139]	32 µg/mL
c[Arg-Arg-arg-arg-naI-trp-naI] [IFX-137]	16 µg/mL
c[Arg-arg-Arg-Arg-Dip-Dip-Dip] [IFX-065]	12.5 µg/mL

Each substance was assayed on S. aureus ATCC 29213 (assay: not given). Details: S. aureus ATCC 29213.

Substance	MIC S. aureus ATCC 29213
c[Arg-Arg-arg-Arg-Dip-Trp-Dip] [IFX-092]	3.1 µg/mL
c[Arg-Arg-arg-arg-NaI-trp-NaI] [IFX-139]	3.1 µg/mL
c[Arg-Arg-arg-arg-naI-trp-naI] [IFX-137]	3.1 µg/mL
c[Arg-arg-Arg-Arg-Dip-Dip-Dip] [IFX-065]	3.1 µg/mL

These substances were tested on B. cereus (ATCC-13061) (assay: Broad-spectrum activity against Gram-Positive bacteria (MIC)). Details: not given.
Assay type: cell-based
Design: unit not given here

Substance	Broad-spectrum activity B. cereus (ATCC-13061)
c[Arg-Arg-arg-Arg-Dip-Trp-Dip] [IFX-092]	6.2
c[Arg-Arg-arg-arg-NaI-trp-NaI] [IFX-139]	3.1
c[Arg-Arg-arg-arg-naI-trp-naI] [IFX-137]	3.1
c[Arg-arg-Arg-Arg-Dip-Dip-Dip] [IFX-065]	3.1

The substances below were run on Klebsiella pneumoniae (ATCC BAA-1705) (assay: not given). Details: Table 16, Gram-negative panel.

Substance	MIC K. pneumonia (ATCC BAA-1705)
c[Arg-Arg-arg-Arg-Dip-Trp-Dip] [IFX-092]	25 µg/mL
c[Arg-Arg-arg-arg-NaI-trp-NaI] [IFX-139]	25 µg/mL
c[Arg-Arg-arg-arg-naI-trp-naI] [IFX-137]	50 µg/mL
c[Arg-arg-Arg-Arg-Dip-Dip-Dip] [IFX-065]	12.5 µg/mL

The substances below were run on E. coli (ATCC BAA-2452) (assay: Broad-spectrum activity against Gram-Negative bacteria (MIC)). Details: Table 16, Gram-negative panel.
Assay type: cell-based

Substance	MIC E. coli (ATCC BAA-2452)
c[Arg-Arg-arg-Arg-Dip-Trp-Dip] [IFX-092]	12.5 µg/mL
c[Arg-Arg-arg-arg-NaI-trp-NaI] [IFX-139]	25 µg/mL
c[Arg-Arg-arg-arg-naI-trp-naI] [IFX-137]	25 µg/mL
c[Arg-arg-Arg-Arg-Dip-Dip-Dip] [IFX-065]	6.2 µg/mL

These substances were tested on Streptococcus pneumoniae ATCC 51938 (assay: not given). Details: S. pneumoniae ATCC 51938.

Substance	Broad-spectrum activity S. pneumoniae (ATCC 51938)
c[Arg-Arg-arg-Arg-Dip-Trp-Dip] [IFX-092]	25
c[Arg-Arg-arg-arg-NaI-trp-NaI] [IFX-139]	12.5
c[Arg-Arg-arg-arg-naI-trp-naI] [IFX-137]	12.5
c[Arg-arg-Arg-Arg-Dip-Dip-Dip] [IFX-065]	12.5

What follows are substances tested on Pseudomonas aeruginosa (ATCC 27883) (assay: not given). Details: P. aeruginosa ATCC 27883.

Substance	MIC P. aeruginosa ATCC 27883
c[Arg-Arg-arg-Arg-Dip-Trp-Dip] [IFX-092]	12.5 µg/mL
c[Arg-Arg-arg-arg-NaI-trp-NaI] [IFX-139]	32 µg/mL
c[Arg-Arg-arg-arg-naI-trp-naI] [IFX-137]	32 µg/mL
c[Arg-arg-Arg-Arg-Dip-Dip-Dip] [IFX-065]	12.5 µg/mL

What follows are substances tested on Enterococcus faecalis ATCC 51575 (assay: not given). Details: E. faecalis ATCC 51575.

Substance	Broad-spectrum activity E. faecalis (ATCC 51575)
c[Arg-Arg-arg-Arg-Dip-Trp-Dip] [IFX-092]	12.5
c[Arg-Arg-arg-arg-NaI-trp-NaI] [IFX-139]	6.2
c[Arg-Arg-arg-arg-naI-trp-naI] [IFX-137]	6.2
c[Arg-arg-Arg-Arg-Dip-Dip-Dip] [IFX-065]	12.5

What follows are substances tested on Enterococcus faecium ATCC 700221 (assay: not given). Details: E. faecium ATCC 700221.

Substance	Broad-spectrum activity E. faecium (ATCC 700221)
c[Arg-Arg-arg-Arg-Dip-Trp-Dip] [IFX-092]	12.5
c[Arg-Arg-arg-arg-NaI-trp-NaI] [IFX-139]	6.2
c[Arg-Arg-arg-arg-naI-trp-naI] [IFX-137]	3.1
c[Arg-arg-Arg-Arg-Dip-Dip-Dip] [IFX-065]	3.1

What follows are substances tested on B. subtilis (ATCC-6633) (assay: Broad-spectrum activity against Gram-Positive bacteria (MIC)). Details: not given.
Assay type: cell-based
Design: unit not given here

Substance	Broad-spectrum activity B. subtilis (ATCC-6633)
c[Arg-Arg-arg-Arg-Dip-Trp-Dip] [IFX-092]	1.5
c[Arg-Arg-arg-arg-NaI-trp-NaI] [IFX-139]	1.5
c[Arg-Arg-arg-arg-naI-trp-naI] [IFX-137]	1.5
c[Arg-arg-Arg-Arg-Dip-Dip-Dip] [IFX-065]	1.5

These substances were tested on Enterococcus faecalis ATCC 29212 (assay: not given). Details: E. faecalis ATCC 29212.

Substance	Broad-spectrum activity E. faecalis (ATCC 29212)
c[Arg-Arg-arg-Arg-Dip-Trp-Dip] [IFX-092]	12.5
c[Arg-Arg-arg-arg-NaI-trp-NaI] [IFX-139]	6.2
c[Arg-Arg-arg-arg-naI-trp-naI] [IFX-137]	6.2
c[Arg-arg-Arg-Arg-Dip-Dip-Dip] [IFX-065]	6.2

These substances were tested on Methicillin-resistant Staphylococcus aureus MRSA (ATCC BAA-1556) (assay: not given). Details: MRSA ATCC BAA-1556.

Substance	MIC MRSA ATCC BAA-1556
c[Arg-Arg-arg-Arg-Dip-Trp-Dip] [IFX-092]	3.1 µg/mL
c[Arg-Arg-arg-arg-NaI-trp-NaI] [IFX-139]	3.1 µg/mL
c[Arg-Arg-arg-arg-naI-trp-naI] [IFX-137]	3.1 µg/mL
c[Arg-arg-Arg-Arg-Dip-Dip-Dip] [IFX-065]	1.5 µg/mL

What follows are substances tested on Klebsiella pneumoniae ATCC 13883 (assay: not given). Details: Table 16, Gram-negative panel.

Substance	MIC K. pneumonia (ATCC 13883)
c[Arg-Arg-arg-Arg-Dip-Trp-Dip] [IFX-092]	50 µg/mL
c[Arg-Arg-arg-arg-NaI-trp-NaI] [IFX-139]	> 50 µg/mL
c[Arg-Arg-arg-arg-naI-trp-naI] [IFX-137]	50 µg/mL
c[Arg-arg-Arg-Arg-Dip-Dip-Dip] [IFX-065]	50 µg/mL

These substances were tested on Streptococcus pneumoniae ATCC 49619 (assay: not given). Details: S. pneumoniae ATCC 49619.

Substance	Broad-spectrum activity S. pneumoniae (ATCC 49619)
c[Arg-Arg-arg-Arg-Dip-Trp-Dip] [IFX-092]	50
c[Arg-Arg-arg-arg-NaI-trp-NaI] [IFX-139]	25
c[Arg-Arg-arg-arg-naI-trp-naI] [IFX-137]	25
c[Arg-arg-Arg-Arg-Dip-Dip-Dip] [IFX-065]	25

These substances were tested on Enterococcus faecium ATCC 27270 (assay: not given). Details: E. faecium ATCC 27270.

Substance	Broad-spectrum activity E. faecium (ATCC 27270)
c[Arg-Arg-arg-Arg-Dip-Trp-Dip] [IFX-092]	6.2
c[Arg-Arg-arg-arg-NaI-trp-NaI] [IFX-139]	3.1
c[Arg-Arg-arg-arg-naI-trp-naI] [IFX-137]	3.1
c[Arg-arg-Arg-Arg-Dip-Dip-Dip] [IFX-065]	3.1

Each substance was assayed on P. aeruginosa (ATCC 10145) (assay: Broad-spectrum activity against Gram-Negative bacteria (MIC)). Details: Table 16, Gram-negative panel.
Assay type: cell-based

Substance	MIC P. aeruginosa (ATCC 10145)
c[Arg-Arg-arg-Arg-Dip-Trp-Dip] [IFX-092]	25 µg/mL
c[Arg-Arg-arg-arg-NaI-trp-NaI] [IFX-139]	50 µg/mL
c[Arg-Arg-arg-arg-naI-trp-naI] [IFX-137]	25 µg/mL
c[Arg-arg-Arg-Arg-Dip-Dip-Dip] [IFX-065]	12.5 µg/mL
